Assay results as given in US12233088B2 (Alexion Pharmaceuticals, Inc., priority 2017, dated 2025).

Experiments:
[1] = test system: patients with Wilson disease
Protocol: Changes in neurological status were characterized using the Unified Wilson's Disease Rating Scale (UWDRS).
Patients were excluded if they had decompensated hepatic cirrhosis, a model for end-stage liver disease (MELD) score >11, or a modified Nazer score (revised King's score)>6.
The 24-week, phase 2, open-label study was conducted in Europe and the USA. […] Thereafter, dosing was tailored according to laboratory (including NCC concentrations adjusted for plasma molybdenum) and clinical assessments (maximum daily dose administered: 120 mg).
Disability and neurological status were assessed using parts II and III, respectively, of the UWDRS at baseline and weeks 4, 8, 12, 18, and 24: Disability (part II): 10-item patient-reported questionnaire (range for total scores: 0-40; higher scores indicate greater disability). Neurological status (part III): 23-item clinician-assessed score (range for total scores: 0-143; higher scores indicate worse neurological status). Data (total scores for UWDRS parts II and III, and AEs) are summarized briefly for context in Results.
UWDRS neurological status scores at baseline, week 24, and change from baseline to week 24 were calculated for: any individual item experienced by at least 50% of patients; and for item groups (i.e. collections of individual items that could be considered to represent particular patient phenotypes [Table 11]).
Least-squares mean (standard error [SE], 95% confidence intervals [CIs]) values were calculated for changes from baseline for UWDRS total scores using a mixed-model repeated-measures analysis; significance was assessed using two-sided p values. To investigate and quantify the relationship between UWDRS total scores for parts II and III, a random coefficients analysis was conducted using each patient's scores from all study visits. Summary statistics were calculated for other outcomes.

[2] = test system: patients with Wilson's disease
Protocol: This open-label, phase 2 study was performed at 11 hospitals in the USA and in Europe. […] Investigators, other hospital personnel, and patients were aware of the identity of the treatment. […] This study is registered with ClinicalTrials.gov, number NCT02273596.
The open-label, phase 2 study was performed at 11 hospitals. Eligible patients were aged 18 years or older, with a diagnosis of Wilson's disease established by a Leipzig score of 4 or more. […] Patients with decompensated hepatic cirrhosis, a MELD score greater than 11, or a modified Nazer score (revised King's score) greater than 6 were excluded.
Investigators, other hospital personnel, patients, and the study sponsor were aware of the identity of the treatment.
Up-titration was stepwise, with each increase restricted to double the previous dose, and not permitted if NCC was within or below the normal range.
Using values for plasma total copper and ceruloplasmin concentrations, NCC was calculated by subtracting the amount of copper bound to ceruloplasmin from total copper concentrations (determined with inductively coupled plasma mass spectrometry). […] The correction method used the average molar ratio of copper to molybdenum in the tripartite complex, which was determined using the relationship between NCC and plasma molybdenum concentrations and confirmed by two independent methods. The NCC correction method was validated using random selections of test and validation samples.
The primary endpoint was change in NCCcorrected from baseline to 24 weeks, which was measured as NCC concentrations corrected for copper contained in tetrathiomolybdate-copper-albumin complexes (NCCcorrected).
Secondary endpoints were safety and tolerability, change in and time to normalisation of NCCcorrected level clinical neurological disease, liver function, clinical symptoms, health-related quality of life (HRQoL), psychiatric status, and pharmacokinetics and exchangeable copper, speciation profiling, and urinary copper. Psychiatric status, pharmacokinetics data, and copper endpoints were also measured. Neurological disease was assessed as patient-reported disability, measured with UWDRS part II, and also as trained-rater-assessed neurological status, measured with UWDRS part III. Liver synthetic function was assessed by monitoring of international normalised ratio (INR) and albumin concentrations. Additionally, changes in liver function were assessed by modified Nazer score (based on bilirubin, INR, AST, albumin, and white blood cell count) and, in a post-hoc analysis, by the MELD score (based on bilirubin, creatinine, INR, and cause of liver disease). HRQoL was measured with the EuroQoL 5 Dimensions Visual Analogue Scale (EQ VAS).
Adverse event (AE) data was collected for onset, duration, seriousness, and severity, with relation to study medication determined by the investigator.
Since the aim of the study was to present primarily descriptive statistics, no formal power calculations were performed. Changes in copper concentrations and scores were summarised over time with descriptive statistics. Mixed-model repeated-measures analysis with a fixed-effect term were applied for clinic visit, and a spatial power covariance structure was applied to model the within-participant errors. A spatial power covariance structure was selected because it assumes that the within-participant correlation decays as the time distance increases between repeated measures. SAS (version 9.3) was utilised to provide change in least-squares mean over time, and the associated 95% CIs, SE, and two-sided p values.

[3] = of 22 patients, baseline to week 24
[4] = baseline to week 24, least-squares mean, mixed-model repeated measures
[5] = baseline to week 24, mixed-model repeated measures
[6] = mixed-model repeated measures using all visits up to week 24

Compound: C[N+](C)(C)CCO.C[N+](C)(C)CCO.[SH-].[SH-].[S]=[Mo]=[S] [WTX101, bis-choline tetrathiomolybdate]
- individuals with deterioration in dystonia item group score ([1]; baseline to week 24): three
- individuals with deterioration in gait item group score ([1]; baseline to week 24): six
- individuals with deterioration in rigidity item group score ([1]; baseline to week 24): four
- mean improvement in UWDRS part III item group total tremor ([1]; baseline to week 24, SD 61.7): 34.2%
- mean improvement in UWDRS part III item group limb agility (dexterity) and coordination ([1]; baseline to week 24, SD 72.2): 29.2%
- overall deterioration in UWDRS part III item group gait ([1]; baseline to week 24, SD 77.8): 4.2%
- overall deterioration in UWDRS part III item group dystonia ([1]; baseline to week 24, SD 135.2): 15.0%
- overall deterioration in UWDRS part III item group rigidity ([1]; baseline to week 24, SD 169.6): 26.9%
- patients with any deterioration in limb agility and coordination item group score [1, 3]: three
- patients with any deterioration in tremor item group score [1, 3]: four
- mean improvement (% change) in UWDRS part III item alternating hand movements ([1]; over 24 weeks): 35.0%
- mean improvement (% change) in UWDRS part III item handwriting ([1]; over 24 weeks): 51.4%
- mean improvement (% change) in UWDRS part III item leg agility ([1]; over 24 weeks): 40.8%
- mean improvement (% change) in UWDRS part III item postural arm tremor ([1]; over 24 weeks): 39.5%
- Patients reporting at least one treatment-emergent adverse event, Number of Patients (%) ([2]; 24 weeks, N=28): 17 (61%)
- adverse event ALT increased, Number of Patients (%) ([2]; 24 weeks, N=28): 8 (29%)
- adverse event AST increased, Number of Patients (%) ([2]; 24 weeks, N=28): 7 (25%)
- adverse event Blood alkaline phosphatase increased, Number of Patients (%) ([2]; 24 weeks, N=28): 3 (11%)
- adverse event Dry Skin, Number of Patients (%) ([2]; 24 weeks, N=28): 2 (7%)
- adverse event GGT increased, Number of Patients (%) ([2]; 24 weeks, N=28): 8 (29%)
- adverse event Headache, Number of Patients (%) ([2]; 24 weeks, N=28): 2 (7%)
- adverse event Hepatic enzyme increased, Number of Patients (%) ([2]; 24 weeks, N=28): 4 (14%)
- adverse event Nausea, Number of Patients (%) ([2]; 24 weeks, N=28): 2 (7%)
- adverse event Tremor, Number of Patients (%) ([2]; 24 weeks, N=28): 2 (7%)
- Relationship to the study drug as deemed by the investigator: ALT increased ([2]; SAE, baseline to week 24): Possible
- Relationship to the study drug as deemed by the investigator: Abnormal behavior ([2]; SAE, baseline to week 24): Unrelated
- Relationship to the study drug as deemed by the investigator: Adjustment disorder ([2]; SAE, baseline to week 24): Unrelated
- Relationship to the study drug as deemed by the investigator: Affective disorder ([2]; SAE, baseline to week 24): Unrelated
- Relationship to the study drug as deemed by the investigator: Agranulocytosis ([2]; SAE, baseline to week 24): Probable
- Relationship to the study drug as deemed by the investigator: Gait disturbance ([2]; SAE, baseline to week 24): Unlikely
- Relationship to the study drug as deemed by the investigator: Hepatic enzyme increased (severe ALT/AST elevation) ([2]; SAE, baseline to week 24): Probable
- Relationship to the study drug as deemed by the investigator: Mania ([2]; SAE, baseline to week 24): Unlikely
- Relationship to the study drug as deemed by the investigator: Personality disorder ([2]; SAE, baseline to week 24): Unlikely
- Relationship to the study drug as deemed by the investigator: Psychotic disorder ([2]; SAE, baseline to week 24): Unrelated
- Relationship to the study drug as deemed by the investigator: Decline in neurological functioning ([2]; SAE, baseline to week 24, likely due to disease progression): Possible
- week by which mean NCCcorrected was below the upper limit of normal ([2]; ULN 2.3 μmol/L): ≤ 12 week
- time to normalisation of liver function tests ([2]; after dose adjustments or treatment interruption): 1-2 weeks
- time of occurrence of liver enzyme increases ([2]; after initiation, at 30 mg/day or higher): 4-10 weeks
- patients who achieved or maintained normalised NCCcorrected, n (%) ([2]; at 24 weeks, of 28 patients): 16 (57%)
- patients with at least a 25% reduction from baseline NCCcorrected, n (%) ([2]; at 24 weeks, of 28 patients): 4 (14%)
- patients meeting the criteria for treatment success ([2]; at 24 weeks, of 28 patients, normalised NCCcorrected (≤2.3 μmol/L) or ≥25% reduction): 71%
- reduction of mean NCCcorrected ([2]; baseline to week 24): 72%
- UWDRS part II score Change from baseline [2, 4]: −3.7
- UWDRS part III score Change from baseline [2, 4]: −8.7
- Albumin Change from baseline [2, 5]: 2.3 g/L
- Bilirubin Change from baseline [2, 5]: 0.02 mg/dL
- EQVAS Change from baseline [2, 5]: 9.2
- INR Change from baseline [2, 5]: −0.05
- Modified Nazer score Change from baseline [2, 5]: −0.4
- Platelets Change from baseline [2, 5]: 2.3 1 × 10^9/L
- MELD score Change from baseline ([2]; baseline to week 24, post-hoc, mixed-model repeated measures): −0.5
- increase of median peak ALT from baseline ([2]; in the 11 patients with liver enzyme increases): 7.2 times
- median peak ALT ([2]; in the 11 patients with liver enzyme increases, range 101-1341): 197 U/L
- ALT Change from baseline [2, 6]: 48.4 U/L
- AST Change from baseline [2, 6]: 3.8 U/L
- GGT Change from baseline [2, 6]: 60.7 U/L
- most pronounced ALT signal ([2]; one patient, 30 mg/day): 1341 U/L
- second highest ALT signal ([2]; one patient, 120 mg/day): 615 U/L
- patients with UWDRS part II score improved by at least one point, n (%) ([2]; week 24): 12 (57%)
- patients with UWDRS part III score improved by 4 or more points, n (%) ([2]; week 24): 14 (67%)
- Modified Nazer score Week 24 Mean (SD) ([2]; week 24, n=21, baseline 1.4 (1.0)): 1.1 (0.6)
- EQVAS Week 24 Mean (SD) ([2]; week 24, n=23, baseline 65.9 (23.0)): 74.3 (16.9)
- INR Week 24 Mean (SD) ([2]; week 24, observed cases, n=22, baseline 1.11 (0.16)): 1.06 (0.08)
- Bilirubin Week 24 Mean (SD) ([2]; week 24, observed cases, n=23, baseline 0.51 (0.29)): 0.49 (0.27) mg/dL
- NCCcorrected Week 24 Mean (SD) ([2]; week 24, observed cases, n=23, baseline 3.6 (2.1)): 0.9 (1.0) μmol/L
- AST Week 24 Mean (SD) ([2]; week 24, observed cases, n=23, baseline 36.6 (27.6)): 28.2 (9.9) U/L
- Albumin Week 24 Mean (SD) ([2]; week 24, observed cases, n=23, baseline 39.2 (5.4)): 40.9 (3.2) g/L
- ALT Week 24 Mean (SD) ([2]; week 24, observed cases, n=23, baseline 42.6 (32.8)): 36.8 (18.7) U/L
- GGT Week 24 Mean (SD) ([2]; week 24, observed cases, n=23, baseline 70.1 (64.0)): 97.5 (77.7) U/L
- Platelets Week 24 Mean (SD) ([2]; week 24, observed cases, n=23, baseline 155.5 (72.5)): 147.9 (63.2) 1 × 10^9/L
- MELD score Week 24 Mean (SD) ([2]; week 24, post-hoc, n=21, baseline 7.7 (1.9)): 7.2 (1.8)
